Test results taken from ChEMBL document CHEMBL1132012, “Synthesis and sulfatase inhibitory activities of (E)- and (Z)-4-hydroxytamoxifen sulfamates” (Bioorg Med Chem Lett, 1999).
Each block holds one molecule with its values, some of them ahead of it.

Key:
Steryl-sulfatase = molecular target: T1, Steryl-sulfatase (Rattus norvegicus, UniProt P15589); assay: (§1) In vitro binding affinity against estrone sulfatase in rat liver microsomes; set-up: species or system Microsome
T1 sequence (P15589 whole entry): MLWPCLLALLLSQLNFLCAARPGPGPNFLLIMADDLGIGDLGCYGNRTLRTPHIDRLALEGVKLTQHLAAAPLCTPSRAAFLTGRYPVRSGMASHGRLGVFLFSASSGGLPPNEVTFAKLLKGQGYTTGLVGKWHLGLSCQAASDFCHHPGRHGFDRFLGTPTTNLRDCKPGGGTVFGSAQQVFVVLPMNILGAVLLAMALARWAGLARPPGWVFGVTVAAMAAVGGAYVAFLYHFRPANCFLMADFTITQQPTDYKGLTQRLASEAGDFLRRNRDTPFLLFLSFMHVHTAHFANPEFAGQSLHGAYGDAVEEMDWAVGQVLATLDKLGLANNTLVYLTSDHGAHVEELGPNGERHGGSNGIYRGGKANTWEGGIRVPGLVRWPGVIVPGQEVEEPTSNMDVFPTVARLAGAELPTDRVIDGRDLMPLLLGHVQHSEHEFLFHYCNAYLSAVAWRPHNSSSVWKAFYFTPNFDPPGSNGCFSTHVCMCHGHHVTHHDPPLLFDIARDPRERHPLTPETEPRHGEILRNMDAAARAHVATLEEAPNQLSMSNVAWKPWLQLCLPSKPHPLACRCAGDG

[1] = substrate: C[C@]12CC[C@@H]3c4ccc(OS(=O)(=O)O)cc4CC[C@H]3[C@@H]1CCC2=O; assay: as §1; details: Microsome

Ki (Steryl-sulfatase): > 500 µM
Molecule: CC/C(=C(\c1ccc(OCCN(C)C)cc1)c1ccc(OS(N)(=O)=O)cc1)c1ccccc1

Ki (Steryl-sulfatase): 35.9 µM
Molecule: CC/C(=C(/c1ccc(OCCN(C)C)cc1)c1ccc(OS(N)(=O)=O)cc1)c1ccccc1

B1: Steryl-sulfatase (Rattus norvegicus), P15589 (protein)
chain: T1 sequence (P15589 whole entry)
Km [1]: 90.2 µM
